Measured values reported in patent US5470832A, “Inhibitors of geranylgeranyl-protein transferase” (Merck & Co., Inc., priority 1994, dated 1995).

How the values were obtained:
Type in all cases: biochemical
FPTase = molecular target: T1, FPTase (Homo sapiens, UniProt P49354+P49356); assay: In vitro inhibition of recombinant farnesyl-protein transferase (transferase assay); details: 650 nM Ras-CVLS, 100 nM farnesyl diphosphate, 30 °C
T1 construct: made in house
From the text: Molecular biological manipulations. To construct the C-terminus CAAX box routants, pUC-[L68]RAS1(term.) was digested with the restriction enzymes HincII and NarI to create a vector into which oligonucleotides containing new C-terminal sequences could be ligated. Except where indicated, the amino acids preceding the CAAX sequence are SLK. To simplify the nomenclature, [L68]RAS1 (term.)SLKCVLS (J.B. Gibbs et al., Proc. Natl. Acad Sci. U.S.A., 86:6630 (1989)) will be referred to as Ras-CVLS, and this convention is used for all other mutants. The substrate for Frase was Ras-CVLS. The substrate for GGPTase-I was Ras-CAIL.
Transferase Assays. Isoprenyl-protein transferase activity assays were carried out at 30 ° C. unless noted otherwise. A typical reaction contained (in a final volume of 50 μL): [^3 H]farnesyl diphosphate or [^3 H]geranylgeranyl diphosphate, Ras protein, 50 mM HEPES, pH 7.5, 5 mM MgCl2, 5 mM dithiothreitol and isoprenyl-protein transferase. The FPTase employed in the assay was prepared by recombinant expression as described in Omer, C. A., Kral, A. M., Diehl, R. E., Prendergast, G. C., Powers, S., Allen, C. M., Gibbs, J. B. and Kohl, N. E. (1993) Biochemistry 32:5167-5176. After thermally pre-equilibrating the assay mixture in the absence of enzyme, reactions were initiated by the addition of isoprenyl-protein transferase and stopped at timed intervals (typically 15 min) by the addition of 1M HCl in ethanol (1 mL). The quenched reactions were allowed to stand for 15 m (to complete the precipitation process). After adding 2 mL of 100% ethanol, the reactions were vacuum-filtered through Whatman GF/C filters. Filters were washed four times with 2 mL aliquots of 100% ethanol, mixed with scintillation fluid (10 mL) and then counted in a Beckman LS3801 scintillation counter.
(§1) For inhibition studies, assays were run as described above, except inhibitors were prepared as concentrated solutions in 100% dimethyl sulfoxide and then diluted 20-fold into the enzyme assay mixture. IC50 values were determined with both transferase substrates near KM concentrations. […]

bGGPTase-I = molecular target: T2, bGGPTase-I (Bos taurus, UniProt P29702+Q5EAD5); assay: In vitro inhibition of geranylgeranyl protein transferase type I purified from bovine brain (transferase assay); details: 500 nM Ras-CAIL, 100 nM geranylgeranyl diphosphate, 30 °C
T2 construct: Cerebral lobes from bovine brains were homogenized in lysis buffer; from tissue; host or cells: bovine brain (cerebral lobes)
Description: Purification of isoprenyl-protein transferases. All purification steps were performed at 4 ° C. Cerebral lobes from bovine brains were homogenized in lysis buffer containing 50 mM Tris-Cl, pH 8.0, 1 mM EGTA, 1 mM MgCl2, 5 mM dithiothreitol, 10 μg/mL aprotinin, 0.5 mM phenylmethyl sulfonyl fluoride (PMSF), 2 μg/mL antipain and 2 μg/mL leupeptin (M.D. Schaber et al. J. Biol. Chem., 265:14701 (1990)). Cellular debris and membranes were removed by centrifugation (10 000 g for 20 rain followed by 100 000 g for 30 minutes). The supematant was loaded directly onto a column (30 cm × 20 cm^2) of DEAE-Sephacel that had been equilibrated with lysis buffer. The column was washed with the same buffer and proteins were eluted with a linear gradient of NaCl (0-500 mM, 1 L+L) in the same buffer. Fractions (20 mL) were collected and those containing different transferase activities were pooled separately. This procedure resolved FTase and GGPTase-II from GGPTase-I. Each pool was then applied to an ω-Aminooctyl agarose colurctn (30 cm×4.9 cm^2) and eluted with a linear gradient of NaCl (0-500 mM, 500 mL+500 mL) in lysis buffer. Fractions containing both FTase and GGPTase-II were pooled. The GGPTase-I (termed "bGGPTase-I") so obtained was utilized in the assay described below.
Molecular biological manipulations. To construct the C-terminus CAAX box routants, pUC-[L68]RAS1(term.) was digested with the restriction enzymes HincII and NarI to create a vector into which oligonucleotides containing new C-terminal sequences could be ligated. Except where indicated, the amino acids preceding the CAAX sequence are SLK. […]
Transferase Assays. […] Filters were washed four times with 2 mL aliquots of 100% ethanol, mixed with scintillation fluid (10 mL) and then counted in a Beckman LS3801 scintillation counter.
as §1

hGGPTase-I = molecular target: T3, hGGPTase-I (Homo sapiens, UniProt P49354+P53609); assay: In vitro inhibition of recombinant human geranylgeranyl protein transferase type I (transferase assay); details: 500 nM Ras-CAIL, 100 nM geranylgeranyl diphosphate, 30 °C
T3 construct: made in house; host or cells: E. coli BL21(DE3), strain RD578
From the text: Cloning of human GGPTase-I βGGI subunit cDNAs. Approximately 1 nmol of GGPTase-I-I purified from bovine brain as described in Moomaw, J.F. and ,Casey, P.J. (1992) J Biol Chem 267:17438-17443, was subjected to electrophoresis on a 11% SDS-polyacrylamide gel and transferred to nitrocellulose paper. The nitrocellulose paper was then stained with Poneeau S to localize the subunit polypeptides. The 48 kDa and 43 kDa bands were excised from the nitroeellulose and sent to Harvard Microchem (Cambridge, Mass.) for processing. High-confidence sequences of five βGGI subunit peptides were obtained. The sequences of these peptides are listed below:
Two degenerate oligonucleotide primers [GCTC-GGATCC-C-(A/G)AA-(A/G)TT-NGT-(A/G)TA-(T/C)TG-(A/G)A (SEQ.ID.NO.:6) and GTCGG-GAATTC-ACN-AT(A/C/T)-GCN-TT(C/T)-TT(C/T)-GC (SEQ.ID.NO.:7)] were synthesized based on portions of two βGGI subunit peptide sequences [IFQYTNFEK (SEQ.ID.NO.:3) (antisense oligo) and TIAFFLSGLDMLD (SEQ.ID.NO.:I) respectively]. The polymerase chain reaction (PCR) (Saiki, R. K., Gelfand, D. H., Stoffel, S., Scharf, S. J., Higuchi, R., Horn, G. T., Mullis, K. B. and Erlich, H. A. (1988) Science 239:[…]) was performed using DNA obtained from a bovine brain eDNA library as template (Vogel, U.S., Dixon, R. A. F., Schaber, M.D., Diehl, R. E., Marshall, M. S., Scoinick, E. M., Sigal, I. S. and Gibbs, J. B. (1988) Nature 335:90-93). […]

SMILES	IC50 (FPTase)	IC50 (bGGPTase-I)	IC50 (hGGPTase-I)
CC(C)C[C@H](NC(=O)[C@@H](/C=C/[C@@H](NC[C@@H](N)CS)C(C)C)C(C)C)C(=O)O [5(S)-[2(R)-amino-3-mercaptopropylamino]-6-methyl(R)-i-propyl-3,4-E-heptenoyl-leucine]	0.07 µM	0.021 µM	
CC[C@H](C)[C@H](NC(=O)[C@@H](NC[C@@H](N)CS)C(C)C)C(=O)N[C@@H](CC(C)C)C(=O)O [N-(2(R)-amino-3-mercaptopropyl)-valyl-isoleucyl-leucine]	0.8 µM	0.0019 µM	0.023 µM
CC[C@H](C)[C@@H](CO[C@H](C(=O)N[C@@H](CC(C)C)C(=O)O)C(C)C)NC[C@@H](N)CS [N-[2(S)-(2(S)-(2(R )-amino-3-mercaptopropylamino)-3(S)-methylpentyloxy)-3-methylbutanoyl]-leucine]	0.45 µM	0.037 µM	
